Reference: patent US9765091B2, “Tetrahydropyrazolo [3,4-b] azepine derivatives and their use as allosteric modulators of metabotropic glutamate receptors” (Addex Pharma S.A., priority 2010, dated 2017)
pEC50: −log10 of the molar value.

Target: T1, human mGluR4 (Homo sapiens, UniProt Q14833)
T1 construct: expressed in transfected cells
Experiment: Fluorescent cell based Ca2+ mobilization assay (FLIPR) on HEK-293 cells expressing human mGluR4
Details: positive allosteric modulation, HEK-293 cells expressing hmGluR4, stimulated by EC25 glutamate; mean of at least three independent experiments in duplicate; read-out: Ca^2+ Flux* (mean EC50)
Excerpt: mGluR4 Assay on HEK-Expressing Human mGluR4
The compounds of the present invention are positive allosteric modulators of mGluR4 receptor. Their activity was examined on recombinant human mGluR4a receptors by detecting changes in intracellular Ca^2+ concentration, using the fluorescent Ca^2+-sensitive dye Fluo4-(AM) and a Fluorometric Imaging Plate Reader (FLIPR, Molecular Devices, Sunnyvale, Calif.).
The cDNA encoding the human metabotropic glutamate receptor (hmGluR4), (accession number NM_000841.1, NCBI Nucleotide database browser), was subcloned into an expression vector containing also the hygromycin resistance gene. In parallel, the cDNA encoding a G protein allowing redirection of the activation signal to intracellular calcium flux was subcloned into a different expression vector containing also the puromycin resistance gene. Transfection of both these vectors into HEK293 cells with PolyFect reagent (Qiagen) according to supplier's protocol, and hygromycin and puromycin treatment allowed selection of antibiotic resistant cells which had integrated stably one or more copies of the plasmids. Positive cellular clones expressing hmGluR4 were identified in a functional assay measuring changes in calcium fluxes in response to glutamate or selective known mGluR4 orthosteric agonists and antagonists. HEK-293 cells expressing hmGluR4 were maintained in media containing DMEM, dialyzed Fetal Calf Serum (10%), Glutamax™ (2 mM), Penicillin (100 units/mL), Streptomycin (100 μg/mL), Geneticin (100 μg/mL) and Hygromycin-B (40 μg/mL) and puromycin (1 μg/mL) at 37° C./5% CO2.
Human mGluR4 HEK-293 cells were plated out 24 hours prior to FLIPR^384 assay in black-walled, clear-bottomed, poly-L-ornithine-coated 384-well plates at a density of 25,000 cells/well in a glutamine/glutamate free DMEM medium containing foetal bovine serum (10%), penicillin (100 units/mL) and streptomycin (100 μg/mL) at 37° C./5% CO2.
On the day of the assay, the medium was aspirated and the cells were loaded with a 3 μM solution of Fluo4-AM (LuBioScience, Lucerne, Switzerland) in 0.03% pluronic acid. After 1 hour at 37° C./5% CO2, the non incorporated dye was removed by washing cell plate with the assay buffer and the cells were left in the dark at room temperature for […] before testing. All assays were performed in a pH 7.4 buffered-solution containing 20 mM HEPES, 143 mM NaCl, 6 mM KCl, 1 mM MgSO4, 1 mM CaCl2, 0.125 mM sulfapyrazone and 0.1% glucose.
After 10 s of basal fluorescence recording, various concentrations of the compounds of the invention were added to the cells. Changes in fluorescence levels were first monitored for 180 s in order to detect any agonist activity of the compounds. Then the cells were stimulated by an EC25 glutamate concentration for an additional 110 s in order to measure enhancing activities of the compounds of the invention. EC25 glutamate concentration is the concentration giving 25% of the maximal glutamate response.
The concentration-response curves of representative compounds of the present invention were generated using the Prism GraphPad software (Graph Pad Inc, San Diego, USA). The curves were fitted to a four-parameter logistic equation: (Y=Bottom+(Top−Bottom)/(1+10^((Log EC50−X)*Hill Slope) allowing the determination of EC50 values.
The Table 4 below represents the mean EC50 obtained from at least three independent experiments of selected molecules performed in duplicate.

T1 sequence (Q14833 33-912): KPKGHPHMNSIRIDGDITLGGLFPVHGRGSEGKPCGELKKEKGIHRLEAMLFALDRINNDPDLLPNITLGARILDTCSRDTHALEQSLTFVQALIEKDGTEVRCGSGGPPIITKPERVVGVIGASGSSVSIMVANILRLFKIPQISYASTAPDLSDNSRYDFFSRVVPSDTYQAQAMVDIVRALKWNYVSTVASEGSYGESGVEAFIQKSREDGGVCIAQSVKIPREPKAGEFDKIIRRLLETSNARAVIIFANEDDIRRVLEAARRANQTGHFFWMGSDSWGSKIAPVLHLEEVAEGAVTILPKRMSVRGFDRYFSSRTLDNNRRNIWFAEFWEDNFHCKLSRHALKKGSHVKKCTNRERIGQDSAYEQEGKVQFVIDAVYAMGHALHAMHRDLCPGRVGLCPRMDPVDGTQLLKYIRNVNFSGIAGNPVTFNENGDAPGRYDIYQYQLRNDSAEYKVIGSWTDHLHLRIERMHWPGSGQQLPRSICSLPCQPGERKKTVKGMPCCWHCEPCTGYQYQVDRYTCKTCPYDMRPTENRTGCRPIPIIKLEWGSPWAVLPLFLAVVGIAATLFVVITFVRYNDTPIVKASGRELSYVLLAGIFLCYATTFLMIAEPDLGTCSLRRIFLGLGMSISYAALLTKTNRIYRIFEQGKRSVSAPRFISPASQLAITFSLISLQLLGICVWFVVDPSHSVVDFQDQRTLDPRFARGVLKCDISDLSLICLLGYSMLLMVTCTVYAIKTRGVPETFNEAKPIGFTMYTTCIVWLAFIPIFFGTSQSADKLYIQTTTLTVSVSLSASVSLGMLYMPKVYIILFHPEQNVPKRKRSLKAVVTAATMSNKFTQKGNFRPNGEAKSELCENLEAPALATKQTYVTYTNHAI

SMILES | pEC50
CC(C)c1cc(CN2CCc3nc(Nc4ncc(F)cn4)sc3-c3c[nH]nc32)no1 [Compound 1-42] | > 7.00
Cc1cc(CN2CCc3sc(Nc4nccc(C)n4)nc3-c3c[nH]nc32)on1 [Compound 1-46, 6-((3-Methylisoxazol-5-yl)methyl)-N-(4-methylpyrimidin-2-yl)-4,5,6,8-tetrahydropyrazolo[3,4-b]thiazolo[4,5-d]azepin-2-amine] | > 7.00
COCCN1CCc2sc(Nc3ncc(O)cn3)nc2-c2cn[nH]c21 [Compound 1-50, 2-(6-(2-Methoxyethyl)-4,5,6,7-tetrahydropyrazolo[3,4-b]thiazolo[4,5-d]azepin-2-ylamino)pyrimidin-5-ol] | > 7.00
Fc1cnc(Nc2nc3c(s2)CCN(C[C@H]2CCCO2)c2[nH]ncc2-3)nc1 [Compound 1-51] | > 7.00
COCCN1CCc2sc(Nc3cccc(CO)n3)nc2-c2c[nH]nc21 [Compound 1-53, (6-(6-(2-Methoxyethyl)-4,5,6,8-tetrahydropyrazolo[3,4-b]thiazolo[4,5-d]azepin-2-ylamino)pyridin-2-yl)methanol] | 5.00 to 6.00
COCCN1CCc2sc(Nc3ccnc(C)n3)nc2-c2c[nH]nc21 [Compound 1-54, 6-(2-Methoxyethyl)-N-(2-methylpyrimidin-4-yl)-4,5,6,8-tetrahydropyrazolo[3,4-b]thiazolo[4,5-d]azepin-2-amine] | 5.00 to 6.00
COCCN1CCc2sc(Nc3ccncn3)nc2-c2c[nH]nc21 [Compound 1-55, 6-(2-Methoxyethyl)-N-(pyrimidin-4-yl)-4,5,6,8-tetrahydropyrazolo[3,4-b]thiazolo[4,5-d]azepin-2-amine] | 5.00 to 6.00

Continued, values first:

pEC50 | SMILES
> 7.00 | Fc1cnc(Nc2nc3c(s2)CCN(Cc2ccc(Cl)cn2)c2n[nH]cc2-3)nc1 [Compound 1-41, 6-((5-Chloropyridin-2-yl)methyl)-N-(5-fluoropyrimidin-2-yl)-4,5,6,8-tetrahydropyrazolo[3,4-b]thiazolo[4,5-d]azepin-2-amine]
> 7.00 | CC(C)OCCN1CCc2sc(Nc3ncc(F)cn3)nc2-c2c[nH]nc21 [Compound 1-43, N-(5-Fluoropyrimidin-2-yl)-6-(2-isopropoxyethyl)-4,5,6,8-tetrahydropyrazolo[3,4-b]thiazolo[4,5-d]azepin-2-amine]
> 7.00 | Fc1cnc(Nc2nc3c(s2)CCN(CC2CCC2)c2n[nH]cc2-3)nc1 [Compound 1-44, 6-(Cyclobutylmethyl)-N-(5-fluoropyrimidin-2-yl)-4,5,6,8-tetrahydropyrazolo[3,4-b]thiazolo[4,5-d]azepin-2-amine]
> 7.00 | Fc1cnc(Nc2nc3c(s2)CCN(Cc2ccccc2)c2[nH]ncc2-3)nc1 [Compound 1-45, 6-Benzyl-N-(5-fluoropyrimidin-2-yl)-4,5,6,7-tetrahydropyrazolo[3,4-b]thiazolo[4,5-d]azepin-2-amine]
> 7.00 | Fc1cnc(Nc2nc3c(s2)CCN(CC2CCCO2)c2[nH]ncc2-3)nc1 (stereo not drawn) [Compound 1-48, N-(5-Fluoropyrimidin-2-yl)-6-((tetrahydrofuran-2-yl)methyl)-4,5,6,7-tetrahydropyrazolo[3,4-b]thiazolo[4,5-d]azepin-2-amine]
> 7.00 | Fc1cnc(Nc2nc3c(s2)CCN(Cc2ncccn2)c2[nH]ncc2-3)nc1 [Compound 1-49, N-(5-Fluoropyrimidin-2-yl)-6-(pyrimidin-2-ylmethyl)-4,5,6,7-tetrahydropyrazolo[3,4-b]thiazolo[4,5-d]azepin-2-amine]
> 7.00 | Cn1ncc(CN2CCc3sc(Nc4ncc(F)cn4)nc3-c3cn[nH]c32)n1 [Compound 1-52, N-(5-Fluoropyrimidin-2-yl)-6-((2-methyl-2H-1,2,3-triazol-4-yl)methyl)-4,5,6,7-tetrahydropyrazolo[3,4-b]thiazolo[4,5-d]azepin-2-amine]
6.00 to 7.00 | Fc1cnc(Nc2nc3c(s2)CCN(Cc2ccn[nH]2)c2n[nH]cc2-3)nc1 [Compound 1-56, 6-((1H-Pyrazol-5-yl)methyl)-N-(5-fluoropyrimidin-2-yl)-4,5,6,8-tetrahydropyrazolo[3,4-b]thiazolo[4,5-d]azepin-2-amine]
